Assays:
[1] = target: Carbonic anhydrase 1 (Homo sapiens, UniProt P00915); assay: Un-competitive inhibition of human erythrocytes carbonic anhydrase 1 esterase activity by Lineweaver-Burk plot analysis
[2] = target: Carbonic anhydrase 2 (Homo sapiens, UniProt P00918); assay: Un-competitive inhibition of human erythrocytes carbonic anhydrase 2 esterase activity by Lineweaver-Burk plot analysis

Chain of Carbonic anhydrase 1 (P00915 whole entry): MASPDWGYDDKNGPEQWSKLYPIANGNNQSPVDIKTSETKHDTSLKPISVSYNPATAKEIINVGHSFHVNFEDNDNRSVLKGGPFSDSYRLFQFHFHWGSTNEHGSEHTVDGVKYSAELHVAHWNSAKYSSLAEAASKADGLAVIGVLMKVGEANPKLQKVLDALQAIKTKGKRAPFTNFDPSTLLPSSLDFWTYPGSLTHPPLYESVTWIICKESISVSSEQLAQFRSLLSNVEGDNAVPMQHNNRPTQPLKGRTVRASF

Ki [1] [nM] | Ki [2] [nM] | Compound
62.3 |  | CC(=O)/C(=N\Nc1cccc(-n2nc(C(=O)Nc3ccc(S(N)(=O)=O)cc3)c(C(=O)O)c2-c2ccccc2)c1)C(=O)c1ccccc1
 | 12.4 | NS(=O)(=O)c1ccc(NC(=O)c2nn(-c3cccc(/N=N/c4c(O)ccc5ccccc45)c3)c(-c3ccccc3)c2C(=O)O)cc1

— ChEMBL document CHEMBL2311345, “Facile synthesis and characterization of novel pyrazole-sulfonamides and their inhibition effects on human carbonic anhydrase isoenzymes” (Bioorg Med Chem, 2013)
